From US20070249655A1, “4-Substituted-1,5-Dihydro-Pyrido[3,2-B]Indol-2-Ones” (priority 2004, published 2007) come the findings set out here.

SMILES strings stand for the structures. Where two headings read alike, the source gives them in different places.

What all share (type): cell-based
Data set [1] concerns wild type laboratory HIV strain (HIV-1 strain LAI). In words: Antiviral cellular assay (MT4 cells, MTT), wild type. As for the experimental part: The compounds of the present invention were examined for anti-viral activity in a cellular assay. […] The cellular assay was performed according to the following procedure.
(§1) HIV- or mock-infected MT4 cells were incubated for five days in the presence of various concentrations of the inhibitor. At the end of the incubation period, the replicating virus in the control cultures has killed all HIV-infected cells in the absence of any inhibitor. Cell viability was determined by measuring the concentration of MTT, a yellow, water soluble tetrazolium dye that is converted to a purple, water insoluble formazan in the mitochondrial of living cells only. Upon solubilization of the resulting formazan crystals with isopropanol, the absorbance of the solution was monitored at 540 nm. The values correlate directly to the number of living cells remaining in the culture at the completion of the five day incubation. The inhibitory activity of the compound was monitored on the virus-infected cells and was expressed as EC50 and EC90. These values represent the amount of the compound required to protect 50% and 90%, respectively, of the cells from the cytopathogenic effect of the virus. The toxicity of the compound was measured on the mock-infected cells and was expressed as CC50, which represents the concentration of compound required to inhibit the growth of the cells by 50%. The selectivity index (SI) (ratio CC50/EC50) is an indication of the selectivity of the anti-HIV activity of the inhibitor. Wherever results are reported as e.g. pEC50 or pCC50 values, the result is expressed as the negative logarithm of the result expressed as EC50 or CC50 respectively.

The subject of another data set is HIV strain A (Y181C). In words: Antiviral cellular assay, mutant strain A. The protocol: as §1
(§2) Because of the increasing emergence of drug resistant HIV strains, the present compounds were also tested for their potency against clinically isolated HIV strains harbouring several mutations (Tables 1 and 7). These mutations are associated with resistance to reverse transcriptase inhibitors and result in viruses that show various degrees of phenotypic cross-resistance to the currently commercially available drugs such as for instance AZT, didanosine, nevirapine, lamivudine and zalcibatine.

The next data set relates to HIV strain B (K103N). In words: Antiviral cellular assay, mutant strain B. As for the experimental part: as §1, §2
Data set [2] relates to HIV strain C (L100I; K103N). In words: Antiviral cellular assay, mutant strain C. As for the experimental part:
as §1, §2

For data set [3], the system named is HIV strain D (L100I;K103N). Kind of data set: Antiviral cellular assay, mutant strain D. The protocol:
as §1, §2

The subject of a further data set is HIV strain E (F227C). In words: Antiviral cellular assay, mutant strain E. As for the experimental part: as §1, §2
For a further data set, the system named is HIV strain F (Y188L). In words: Antiviral cellular assay, mutant strain F. The protocol: as §1, §2
Data set [4] has as its system HIV strain G (V106A, F227L). In words: Antiviral cellular assay, mutant strain G. As for the experimental part:
as §1, §2

Data set [5] deals with HIV strain H (K103N, Y181C). In words: Antiviral cellular assay, mutant strain H. The protocol: as §1, §2
The subject of data set [6] is HIV strain I (K101E, K103N). In words: Antiviral cellular assay, mutant strain I. The protocol:
as §1, §2

For data set [7], the system named is HIV strain J (I31L, L100I, K103N, E138G, Y181C, L214F). Kind of data set: Antiviral cellular assay, mutant strain J. The protocol: as §1, §2
Data set [8] concerns HIV strain K (multi-mutant incl. M41L, D67N, K103N, Y181C, L210W, T215Y). In words: Antiviral cellular assay, mutant strain K. As for the experimental part:
as §1, §2

Another data set has as its system HIV-2. In words: Antiviral cellular assay, HIV-2. The conditions noted are these: Human immunodeficiency virus 2; read-out: pEC50 towards HIV-2 (converted). The protocol:
as §1, with “The toxicity of the compound was measured on the mock-infected cells and was expressed as CC50, which represents the concentration of compound required to inhibit the growth of the cells by 50%. The selectivity index (SI) (ratio CC50/EC50) is an indication of the selectivity of the anti-HIV activity of the inhibitor.” left out
(§3) Row WT: pEC50 against wild type HlV-LAI strain. The toxicity (Tox) is expressed as the pCC50 value as determined with mock transfected cells. ND means not determined.

For data set [9], the system named is SIV (simian immunodeficiency virus). Kind of data set: Antiviral cellular assay, SIV. Particulars: read-out: pEC50 towards SIV (converted).
Another data set in a line: in vitro. Particulars: human. As for the experimental part: as §1, with “The toxicity of the compound was measured on the mock-infected cells and was expressed as CC50, which represents the concentration of compound required to inhibit the growth of the cells by 50%. The selectivity index (SI) (ratio CC50/EC50) is an indication of the selectivity of the anti-HIV activity of the inhibitor.” left out
as §3

The mark [10] stands for this setting: Human immunodeficiency virus 1, WT, MT4 cells, read-out: pEC50 against wild type HIV-LAI strain (converted).
Setting [11] is: EC50 mutant / EC50 wild type, rounded to nearest integer.
[12] abbreviates: Human immunodeficiency virus 1, MT4, read-out: EC50 value, wild-type HIV-LAI strain.

As to `CC(=O)CC1C(C#N)=C(N(C)C)N(c2ccc([N+](=O)[O-])cc2)c2c1n(C)c1ccccc21` (stereo not drawn) [2-(dimethylamino)-4,5-dihydro-5-methyl-1-(4-nitrophenyl)-4-(2-oxopropyl)-1H-pyrido[3,2-b]indole-3-carbonitrile, reference compound], the EC50 in [1] (setting [10]) was 3160 nM.
On to `N#Cc1cc2[nH]c3ccccc3c2n(-c2ccc([N+](=O)[O-])cc2)c1=O` [Compound 1, 1-(4-nitro-phenyl)-2-oxo-2,5-dihydro-1H-pyrido[3,2-b]indole-3-carbonitrile], for which the EC50 in data set [1] (setting [10]) is 316 nM; with HIV strain A (Y181C) (Human immunodeficiency virus 1, read-out: pEC50 towards mutant A (converted)), 2510 nM; in the data set with HIV strain B (K103N) (Human immunodeficiency virus 1, read-out: pEC50 towards mutant B (converted)), 1260 nM; in [2] (Human immunodeficiency virus 1, read-out: pEC50 towards mutant C (converted)), 2510 nM; in [3] (Human immunodeficiency virus 1, read-out: pEC50 towards mutant D (converted)), 1000 nM; with HIV strain E (F227C) (Human immunodeficiency virus 1, read-out: pEC50 towards mutant E (converted)), 2000 nM. Further, the EC50 is 1260 nM in the data set with HIV strain F (Y188L) (Human immunodeficiency virus 1, read-out: pEC50 towards mutant F (converted)); 631 nM in data set [4] (Human immunodeficiency virus 1, read-out: pEC50 towards mutant G (converted)); 1580 nM in data set [5] (Human immunodeficiency virus 1, read-out: pEC50 towards mutant H (converted)); 794 nM in data set [6] (Human immunodeficiency virus 1, read-out: pEC50 towards mutant I (converted)); 1580 nM in data set [7] (Human immunodeficiency virus 1, read-out: pEC50 towards mutant J (converted)); 316 nM in [8] (Human immunodeficiency virus 1, read-out: pEC50 towards mutant K (converted)). Moreover, the EC50 with HIV-2 was 6310 nM; in data set [9], 7940 nM. Further, in the data set on HIV strain A (Y181C) (setting [11]), the “fold resistance, mutant A” value was “(8)”. In the data set on HIV strain B (K103N) (setting [11]), the “fold resistance, mutant B” value is “(4)”. The “fold resistance, mutant C” value in [2] (setting [11]) is listed as “(8)”. In data set [3] (setting [11]), the “fold resistance, mutant D” value is “(3)”. Further, the “fold resistance, mutant E” value in the data set with HIV strain E (F227C) (setting [11]) is listed as “(6)”. Further, in the data set with HIV strain F (Y188L) (setting [11]), the “fold resistance, mutant F” value was “(4)”. Further, the “fold resistance, mutant G” value in data set [4] (setting [11]) is “(2)”. Moreover, the “fold resistance, mutant H” value in [5] (setting [11]) is listed as “(5)”. The “fold resistance, mutant I” value in data set [6] (setting [11]) is given as “(3)”. In data set [7] (setting [11]), the “fold resistance, mutant J” value is recorded as “(5)”. Moreover, the “fold resistance, mutant K” value in data set [8] (setting [11]) is given as “(1)”. Besides, in “in vitro”, the 50% cytotoxic concentration (CC50) (in general, the concentration that lowers cell viability or growth by half) at 5 days is above 32400 nM.
Turning to `N#Cc1cc2c(c3ccccc3n2Cc2ccccc2)n(-c2ccc([N+](=O)[O-])cc2)c1=O` [Compound 6], the EC50 in data set [1] (setting [12]) lay within 1000 to 32000 nM.
Same read-out and setting: the value for `CCCCn1c2ccccc2c2c1cc(C#N)c(=O)n2-c1ccc([N+](=O)[O-])cc1` [Compound 8] was below 1000 nM; that for `CCn1c2ccccc2c2c1cc(C#N)c(=O)n2-c1ccc([N+](=O)[O-])cc1` [Compound 9] was below 1000 nM; that for `N#Cc1cc2c(c3ccccc3n2C2CCCC2)n(-c2ccc([N+](=O)[O-])cc2)c1=O` [Compound 10] was 1000 to 32000 nM.
For `N#Cc1cc2c(c3ccccc3n2CC(=O)O)n(-c2ccc([N+](=O)[O-])cc2)c1=O` [Compound 19], the EC50 in data set [1] (setting [12]) is 1000 to 32000 nM.
Still for that read-out and setting: the value for `N#Cc1cc2[nH]c3ccccc3c2n(-c2ccc(F)cc2)c1=O` [Compound 37] was above 32000 nM; that for `N#Cc1cc2[nH]c3ccccc3c2n(-c2ccc(Br)cc2)c1=O` [Compound 38] was 1000 to 32000 nM.
As for `Cn1c2ccccc2c2c1cc(C#N)c(=O)n2-c1ccc(Br)cc1` [Compound 39], the EC50 in data set [1] (setting [12]) is 1000 to 32000 nM.
The same measure, in the same setting: the value for `N#Cc1cc2[nH]c3ccccc3c2n(-c2ccc(F)c([N+](=O)[O-])c2)c1=O` [Compound 41] was 1000 to 32000 nM; that for `N#Cc1cc2[nH]c3ccccc3c2n(-c2cccc([N+](=O)[O-])c2)c1=O` [Compound 42] was 1000 to 32000 nM.
Regarding `Cn1c2ccccc2c2c1cc(C#N)c(=O)n2-c1cccc([N+](=O)[O-])c1` [Compound 43], in data set [1] (setting [12]), the EC50 is below 1000 nM.
The same measure, in the same setting: the value for `Cn1c2ccccc2c2c1cc(C#N)c(=O)n2-c1ccc(F)cc1` [Compound 44] was above 32000 nM; that for `N#Cc1ccc(-n2c(=O)c(C#N)cc3[nH]c4ccccc4c32)cc1` [Compound 45] was above 32000 nM.
Same read-out and setting: the value for `Cn1c2ccccc2c2c1cc(C#N)c(=O)n2-c1ccc(C#N)cc1` [Compound 46] was 1000 to 32000 nM; that for `Cn1c2ccccc2c2c1cc(C#N)c(=O)n2-c1ccc(-c2ccco2)cc1` [Compound 48] was 1000 to 32000 nM; that for `O=c1ccc2[nH]c3ccccc3c2n1-c1ccc([N+](=O)[O-])cc1` [Compound 66] was 1000 to 32000 nM.
With `Cn1c2ccccc2c2c1ccc(=O)n2-c1ccc([N+](=O)[O-])cc1` [Compound 67], the EC50 in data set [1] (setting [12]) is below 1000 nM.
Take `Cn1c2ccccc2c2c1cc(Br)c(=O)n2-c1ccc([N+](=O)[O-])cc1` [Compound 68]: the EC50 in data set [1] (setting [12]) was below 1000 nM.
The same measure, in the same setting: the value for `Cn1c2ccccc2c2c1cc(C(=N)NO)c(=O)n2-c1ccc([N+](=O)[O-])cc1` [Compound 70] was 1000 to 32000 nM; that for `Cn1c2ccccc2c2c1cc(Cl)c(=O)n2-c1ccc(C(=O)O)cc1` [Compound 87] was 1000 to 32000 nM.
On to `Cn1c2ccccc2c2c1cc(C#N)c(=O)n2-c1ccc(N)cc1` [Compound 89], for which, in data set [1] (setting [12]), the EC50 is above 32000 nM.
On the same count and under the same terms, the value for `N#Cc1ccc(-n2c(=O)ccc3[nH]c4ccccc4c32)cc1` [Compound 93] was 1000 to 32000 nM; that for `O=C(O)c1ccc(-n2c(=O)ccc3[nH]c4ccccc4c32)cc1` [Compound 94] was 1000 to 32000 nM.
On the same count and under the same terms, the value for `Cn1c2ccccc2c2c1ccc(=O)n2-c1ccc(C#N)cc1` [Compound 96] was 1000 to 32000 nM; that for `Cn1c2ccccc2c2c1ccc(=O)n2-c1ccc(/C(N)=N/O)cc1` [Compound 97] was 1000 to 32000 nM.
The same measure, in the same setting: the value for `Cn1c2ccccc2c2c1ccc(=O)n2-c1ccc(C(N)=O)cc1` [Compound 98] was 1000 to 32000 nM; that for `Cn1c2ccccc2c2c1ccc(=O)n2-c1ccc(C(=O)O)cc1` [Compound 99] was 1000 to 32000 nM.
